Legend:
[1] = target: T1, β-arrestin signaling pathway of MOR (Homo sapiens, UniProt P35372); assay: cell-based; details: PathHunter HEK293 cells, relative to endorphin MAX control
T1 construct: host or cells: HEK293 (PathHunter cell line)

[2] = test system: rat surgical incision injury model; assay: Rat surgical incision injury model, von Frey paw withdrawal threshold; assay type: in vivo, SD rats; details: rats, intravenous 0.3 mg/kg
Text: 8-week-old male SD rats weighing 200 g-300 g were used as experimental animals to determine the effect of the compound of Example H02, the compound of Example H04, the compound of Example H10, the compound of Example H16, the compound of Example H17, the compound of Example H18, the compound of Example H21 and the compound of Example H24 on surgical pain in rats after intravenous administration. The analgesic effect of the compounds was discussed.
A certain amount of the compounds or TRV130 (MCE, 15150) was weighed, and dissolved in ethanol/castor oil/water=10/10/80 as a clear and transparent solution.
Three days after the rats were acclimatized to the experimental environment, the preoperative base value was determined, and followed by the surgical pain operation described below, about 24 hours after the surgery, the basic value was measured before administration on all animals, and mechanically hypersensitive animals (the paw withdrawal threshold (PWT) was less than 5 g) was randomly assigned to each administration group according to PWT. The pain threshold was determined 30 minutes and 60 minutes after intravenous administration of the positive drug TRV130 or each compound of the present invention (at a dose of 0.3 mg/kg).
The surgical procedure was performed aseptically, and the surgical instruments (scissors, tweezers, scalpels, surgical cotton and sutures) were sterilized before surgery. The animals were anesthetized with sodium pentobarbital (50 mg/kg, injected intraperitoneally), and the toes of the animals were squeezed to confirm that the animals were completely anesthetized before surgery. From the position of 0.5 cm away from the heel, an incision about 1 cm was made in the longitudinal direction of the toe. After cutting the skin, the musculus flexor digitorum brevis was raised and a blunt injury was caused longitudinally. After pressing to stop bleeding, the wound was sutured. When the animal was completely awake (free to move), the animal was put back into the cage (the reference of the construction of surgical pain model: Timothy J. Brennan, Erik P. Vandermeulen, G. F. Gebhart. Characterization of a rat model of incisional pain. Pain, 64(1996):493-501).
An up-down method was used for the determination of pain sensitivity. The mechanical pain results were expressed as animal paw withdrawal response threshold (PWT). The rat was placed separately in a plexiglass box with a mesh at the bottom of the box to ensure that the rat's feet could be tested. The rat was acclimatized for 15 minutes before the test, and after the acclimatization, the test fiber (von frey fiber, West coast) was used to test in the middle part of the hind foot of the rat. The test fibers included 8 test strengths: 3.61 (0.4 g), 3.84 (0.6 g), 4.08 (1 g), 4.31 (2 g), 4.56 (4 g), 4.74 (6 g), 4.93 (8 g), and 5.18 (15 g). During the test, the test fiber was pressed vertically against the skin and a force was applied to bend the fiber for 6-8 seconds, at an interval of 5 seconds between each test. During the test, the animal's rapid withdrawal was recorded as a pain response. When the test fiber left the animal's skin, the animal's withdrawal was also recorded as a pain response. Starting from 2 g, depending on whether the rats had any pain response, the test was changed into the next test intensity or the previous test intensity. A series of responses of the rats to different test intensities were recorded. […] Wherein, Xf was the logarithmic value of von Frey fiber used in the last test, and K value was the animal withdrawal reaction mode (recorded during the test), which was the value obtained after looking up the table according to the obtained sequence of “X” and “O”, δ=Mean of logarithmic difference between von Frey fibers used in the test.

SD rats = assay: Respiratory depression in rats, arterial blood gas PCO2; assay type: in vivo; details: for PCO2, 5 min before administration: arterial blood; for PCO2, 5 min after administration / PCO2, 30 min after administration / PCO2, 60 min after administration / PCO2, 120 min after administration: intravenous single dose 0.3 mg/kg (morphine 24 mg/kg)

T1 sequence (P35372 whole entry): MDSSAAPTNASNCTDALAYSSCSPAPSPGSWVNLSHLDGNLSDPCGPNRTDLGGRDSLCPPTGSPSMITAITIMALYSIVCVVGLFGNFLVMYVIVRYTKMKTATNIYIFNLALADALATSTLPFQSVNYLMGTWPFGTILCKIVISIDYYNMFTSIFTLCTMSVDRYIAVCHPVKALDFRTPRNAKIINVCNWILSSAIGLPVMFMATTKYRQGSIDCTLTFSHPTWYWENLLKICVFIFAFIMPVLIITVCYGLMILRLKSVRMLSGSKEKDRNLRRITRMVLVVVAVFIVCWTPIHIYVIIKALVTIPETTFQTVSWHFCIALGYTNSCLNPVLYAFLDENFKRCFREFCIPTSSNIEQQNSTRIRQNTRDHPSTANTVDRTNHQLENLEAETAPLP

SMILES | Emax [1] [%] | 50% PWT, 30 min after administration [2] [g] | 50% PWT, 60 min after administration [2] [g] | PCO2, 5 min before administration (SD rats) [mmHg] | PCO2, 5 min after administration (SD rats) [mmHg] | PCO2, 30 min after administration (SD rats) [mmHg] | PCO2, 60 min after administration (SD rats) [mmHg] | PCO2, 120 min after administration (SD rats) [mmHg]
Cc1c(Cl)cccc1CNCCC1(c2ccccn2)CCOC2(CCCC2)C1 (stereo not shown) [Example H04, (3-chloro-2-methylbenzyl)-[2-(9-(pyridin-2-yl)-6-oxaspiro[4.5]decan-9-yl)ethyl]amine] | 6.12 | 11.72 ± 0.56 | 8.29 ± 1.06 | – | – | – | – | –
FC(F)Oc1ccccc1CNCCC1(c2ccccn2)CCOC2(CCCC2)C1 (stereo not shown) [Example H16, (2-difluoromethoxybenzyl)-[2-(9-(pyridin-2-yl)-6-oxaspiro[4.5]decan-9-yl)ethyl]amine] | 3.12 | 13.72 ± 0.56 | 10.29 ± 1.06 | 35.27 ± 0.43 | 30.48 ± 1.24 | 30.03 ± 0.62 | 31.27 ± 1.2 | 31.83 ± 1.40
FC(F)(F)Oc1ccc(Cl)cc1CNCCC1(c2ccccn2)CCOC2(CCCC2)C1 (stereo not shown) [Example H17, (5-chloro-2-trifluoromethoxybenzyl)-[2-(9-(pyridin-2-yl)-6-oxaspiro[4.5]decan-9-yl)ethyl]amine] | 1.78 | 8.85 ± 1.59 | 7.91 ± 1.43 | 34.77 ± 1.88 | 35.48 ± 1.74 | 34.03 ± 1.69 | 34.27 ± 1.4 | 34.83 ± 1.15
FC(F)Oc1ccsc1CNCCC1(c2ccccn2)CCOC2(CCCC2)C1 (stereo not shown) [Example H18, ((3-difluoromethoxythiophen-2-yl)methyl)-[2-(9-(pyridin-2-yl)-6-oxaspiro[4.5]decan-9-yl)ethyl]a mine] | 0.48 | 7.85 ± 0.54 | 6.91 ± 0.33 | 33.77 ± 0.88 | 35.48 ± 1.54 | 34.03 ± 0.69 | 36.27 ± 1.4 | 34.83 ± 1.45
Fc1ccc(C2(CCNCc3ccccc3OC(F)(F)F)CCOC3(CCCC3)C2)nc1 (stereo not shown) [Example H21, {2-[9-(5-fluoro-pyridin-2-yl)-6-oxa-spiro[4.5]decan-9-yl]-ethyl}-(2-(trifluoromethoxy)-phenmethyl)-amine] | 0.08 | 10.72 ± 2.56 | 8.29 ± 1.06 | 36.77 ± 1.78 | 35.48 ± 1.72 | 36.03 ± 1.42 | 37.27 ± 1.94 | 36.83 ± 1.65
CNc1ccsc1C(=O)NCCC1(c2ccccn2)CCOC2(CCCC2)C1 (stereo not shown) [Example H24, 3-methylamino-thiophene-2-carboxylic acid [2-(9-pyridin-2-yl-6-oxa-spiro[4.5]decan-9-yl)-ethyl]-amide] | 2.76 | 11.32 ± 2.35 | 7.29 ± 1.23 | 36.77 ± 1.94 | 36.48 ± 1.80 | 33.03 ± 0.72 | 36.27 ± 1.57 | 36.83 ± 1.73
